According to patent publication US20260078130A1, “NAMPT MODULATORS, PREPARATIONS, AND USES THEREOF” (SIRONAX LTD., priority 2022, published 2026):

Tests used:
[1] = biological target: T1, human enzyme NAMPT (full length) (Homo sapiens, UniProt P43490); assay: NMN fluorescence biochemical assay (stimulation of NMN synthesis by NAMPT); conditions: for EC50: NMN synthesis by purified human NAMPT (100 nM), concentration giving half-maximal activation, read-out: Enzymatic EC50; for Enzymatic Emax: fold change of maximal activation compared to DMSO
T1 construct: human enzyme NAMPT (full length)
T1 sequence (P43490 whole entry): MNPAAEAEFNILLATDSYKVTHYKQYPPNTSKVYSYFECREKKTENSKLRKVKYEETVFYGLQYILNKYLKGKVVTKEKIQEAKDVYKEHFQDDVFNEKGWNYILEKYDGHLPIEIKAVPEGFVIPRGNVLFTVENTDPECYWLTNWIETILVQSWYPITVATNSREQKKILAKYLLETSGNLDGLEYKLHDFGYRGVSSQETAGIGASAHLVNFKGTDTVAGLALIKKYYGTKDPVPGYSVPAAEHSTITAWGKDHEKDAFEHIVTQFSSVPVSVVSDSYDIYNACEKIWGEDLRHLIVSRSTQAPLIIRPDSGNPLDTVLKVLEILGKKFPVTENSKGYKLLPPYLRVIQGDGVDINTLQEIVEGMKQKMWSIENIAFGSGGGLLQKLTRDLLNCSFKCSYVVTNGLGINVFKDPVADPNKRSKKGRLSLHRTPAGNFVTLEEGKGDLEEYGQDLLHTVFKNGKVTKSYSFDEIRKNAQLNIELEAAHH
Summary of the method: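 Full-length human NAMPT (100 nM) was preincubated 15 min at 37 °C with compound in 50 mM Tris-HCl pH 7.5, 10 mM MgCl2, 2 mM DTT, then reacted 1 h at 37 °C with 50 μM NAM, 100 μM PRPP, 4 mM ATP (stated solution concentrations). NMN was derivatised with acetophenone/KOH then formic acid and read at Ex/Em 382/445 nm; EC50 and Emax (fold over DMSO) reported.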

[2] = tested on: endogenous NAMPT in U2OS cells; assay: Cellular NAD+ modulation assay (NAD/NADH-Glo, U2OS cells); assay type: cell-based; conditions: Homo sapiens, 24 hours incubation with compound; for maximal fold induction: read-out: Cellular Emax
Summary of the method: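 NAD/NADH-Glo luminescence quantified NAD+ after acid treatment (60 °C, 15 min) and neutralization of DTAB lysates. Beforehand, U2OS cells seeded 16 h earlier received compound concentration series for 24 h at 37 °C. Values given as half-maximal activation concentration (EC50) and maximal fold change versus DMSO (Emax).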

| Compound | EC50 [1] [nM] | Enzymatic Emax [1] | EC50 [2] [nM] | maximal fold induction [2] |
| --- | --- | --- | --- | --- |
| O=C1c2ccccc2C(Cc2cccnc2)N1Cc1ccc2[nH]c(=O)oc2c1 (centres unmarked) [Compound 137, 6-((1-oxo-3-(pyridin-3-ylmethyl)isoindolin-2-yl)methyl)benzo[d]oxazol-2(3H)-one] | 500 to 5000 | B (3≥B>2) | < 500 | > 1.5 |
| O=C1c2ccccc2C(Cc2nccs2)N1Cc1ccc2[nH]c(=O)oc2c1 (centres unmarked) [Compound 140, 6-((1-oxo-3-(thiazol-2-ylmethyl)isoindolin-2-yl)methyl) benzo[d]oxazol-2(3H)-one] | ≥ 5000 | A (A>3) | 500 to 5000 | > 1.5 |
| O=c1[nH]c2ccc(Cn3c(=O)c4ccccc4n3Cc3ccccc3C(F)(F)F)cc2o1 [Compound 141, 6-((3-oxo-1-(2-(trifluoromethyl)benzyl)-1,3-dihydro-2H-indazol-2-yl)methyl)benzo[d]oxazol-2(3H)-one] | 500 to 5000 | B (3≥B>2) | 500 to 5000 | > 1.5 |
| COc1ccccc1CC1c2ccccc2C(=O)N1Cc1ccc2[nH]c(=O)oc2c1 (centres unmarked) [Compound 142, 6-((1-(2-methoxybenzyl)-3-oxoisoindolin-2-yl)methyl)benzo[d]oxazol-2(3H)-one] | < 500 | B (3≥B>2) | 500 to 5000 | > 1.5 |
| CC1c2cc(CN3CCOCC3)ccc2C(=O)N1Cc1ccc2[nH]c(=O)oc2c1 (centres unmarked) [Compound 143, 6-((3-methyl-5-(morpholinomethyl)-1-oxoisoindolin-2-yl)methyl)benzo[d]oxazol-2(3H)-one] | ≥ 5000 | A (A>3) | 500 to 5000 | > 1.5 |
| O=C1c2ccccc2C(Cc2ccccc2F)N1Cc1ccc2[nH]c(=O)oc2c1 (centres unmarked) [Compound 146, 6-((1-(2-fluorobenzyl)-3-oxoisoindolin-2-yl)methyl)benzo[d]oxazol-2(3H)-one] | < 500 | A (A>3) | < 500 | > 1.5 |
| N#Cc1ccccc1CC1c2ccccc2C(=O)N1Cc1ccc2[nH]c(=O)oc2c1 (centres unmarked) [Compound 147, 2-((3-oxo-2-((2-oxo-2,3-dihydrobenzo[d]oxazol-6-yl)methyl)isoindolin-1-yl)methyl) benzonitrile] | < 500 | A (A>3) | < 500 | > 1.5 |
| N#Cc1ccc(CC2c3ccccc3C(=O)N2Cc2ccc3[nH]c(=O)oc3c2)cc1 (centres unmarked) [Compound 148, 4-((3-oxo-2-((2-oxo-2,3-dihydrobenzo[d]oxazol-6-yl)methyl)isoindolin-1-yl)methyl) benzonitrile] | 500 to 5000 | B (3≥B>2) | 500 to 5000 | > 1.5 |
| CC1c2cc(NC3CC4(COC4)C3)ccc2C(=O)N1Cc1ccc2[nH]c(=O)oc2c1 (centres unmarked) [Compound 149, 6-((5-((2-oxaspiro[3.3]heptan-6-yl)amino)-3-methyl-1-oxoisoindolin-2-yl)methyl)benzo[d]oxazol-2(3H)-one] | 500 to 5000 | B (3≥B>2) | 500 to 5000 | > 1.5 |
| O=C1c2ccccc2C(Cc2ncco2)N1Cc1ccc2[nH]c(=O)oc2c1 (centres unmarked) [Compound 150, 6-((1-(oxazol-2-ylmethyl)-3-oxoisoindolin-2-yl)methyl)benzo[d]oxazol-2(3H)-one] | ≥ 5000 | A (A>3) | 5000 to 50000 | > 1.5 |
| Cc1ccccc1CC1c2ncccc2C(=O)N1Cc1ccc2[nH]c(=O)oc2c1 (centres unmarked) [Compound 151, 6-((7-(2-methylbenzyl)-5-oxo-5,7-dihydro-6H-pyrrolo[3,4-b]pyridin-6-yl)methyl)benzo[d]oxazol-2(3H)-one] | ≥ 5000 | A (A>3) | 500 to 5000 | > 1.5 |
| Cc1ccnc(CC2c3ccccc3C(=O)N2Cc2ccc3[nH]c(=O)oc3c2)c1 (centres unmarked) [Compound 156, 6-((1-((4-methylpyridin-2-yl)methyl)-3-oxoisoindolin-2-yl)methyl)benzo[d]oxazol-2(3H)-one] | ≥ 5000 | A (A>3) | 500 to 5000 | > 1.5 |
| O=C1c2ccccc2C(Cc2ccccc2Cl)N1Cc1ccc2[nH]c(=O)oc2c1 (centres unmarked) [Compound 157, 6-((1-(2-chlorobenzyl)-3-oxoisoindolin-2-yl)methyl)benzo[d]oxazol-2(3H)-one] | < 500 | A (A>3) | 500 to 5000 | > 1.5 |
| Cc1cccc(CC2c3ccccc3C(=O)N2Cc2ccc3[nH]c(=O)oc3c2)n1 (centres unmarked) [Compound 158, 6-((1-((6-methylpyridin-2-yl)methyl)-3-oxoisoindolin-2-yl)methyl)benzo[d]oxazol-2(3H)-one] | ≥ 5000 | A (A>3) | 500 to 5000 | > 1.5 |
| O=C1c2ccccc2C(Cc2ncccc2Cl)N1Cc1ccc2[nH]c(=O)oc2c1 (centres unmarked) [Compound 159, 6-((1-((3-chloropyridin-2-yl)methyl)-3-oxoisoindolin-2-yl)methyl)benzo[d]oxazol-2(3H)-one] | < 500 | A (A>3) | < 500 | > 1.5 |
| Cc1ccccc1CC1c2cccnc2C(=O)N1Cc1ccc2[nH]c(=O)oc2c1 (centres unmarked) [Compound 160, 6-((5-(2-methylbenzyl)-7-oxo-5,7-dihydro-6H-pyrrolo[3,4-b]pyridin-6-yl)methyl)benzo[d]oxazol-2(3H)-one] | 500 to 5000 | B (3≥B>2) | 500 to 5000 | > 1.5 |
| Cc1ccc(CC2c3ccccc3C(=O)N2Cc2ccc3[nH]c(=O)oc3c2)nc1 (centres unmarked) [Compound 161, 6-((1-((5-methylpyridin-2-yl)methyl)-3-oxoisoindolin-2-yl)methyl)benzo[d]oxazol-2(3H)-one] | 500 to 5000 | A (A>3) | 500 to 5000 | > 1.5 |
| Cc1ccc(C#N)c(CC2c3ccccc3C(=O)N2Cc2ccc3[nH]c(=O)oc3c2)c1 (centres unmarked) [Compound 164, 4-methyl-2-((3-oxo-2-((2-oxo-2,3-dihydrobenzo[d]oxazol-6-yl)methyl)isoindolin-1-yl)methyl)benzonitrile] | < 500 | B (3≥B>2) | < 500 | > 1.5 |
| CCOc1ccccc1CC1c2ccccc2C(=O)N1Cc1ccc2[nH]c(=O)oc2c1 (centres unmarked) [Compound 166, 6-((1-(2-ethoxybenzyl)-3-oxoisoindolin-2-yl)methyl)benzo[d]oxazol-2(3H)-one] | 500 to 5000 | B (3≥B>2) | 500 to 5000 | 1.2 to 1.5 |
| O=C1c2ccccc2C(CC2CCCCC2)N1Cc1ccc2[nH]c(=O)oc2c1 (centres unmarked) [Compound 167, 6-((1-(cyclohexylmethyl)-3-oxoisoindolin-2-yl)methyl)benzo[d]oxazol-2(3H)-one] | 500 to 5000 | B (3≥B>2) | 500 to 5000 | 1.2 to 1.5 |
| Cc1ccccc1CC1c2ccncc2C(=O)N1Cc1ccc2[nH]c(=O)oc2c1 (centres unmarked) [Compound 168, 6-((1-(2-methylbenzyl)-3-oxo-1,3-dihydro-2H-pyrrolo[3,4-c]pyridin-2-yl)methyl)benzo[d]oxazol-2(3H)-one] | 500 to 5000 | A (A>3) | 500 to 5000 | > 1.5 |
| N#Cc1ccccc1CC1c2ccccc2C(=O)N1Cc1ccc(O)cc1 (centres unmarked) [Compound 169, 2-((2-(4-hydroxybenzyl)-3-oxoisoindolin-1-yl)methyl)benzonitrile] | < 500 | B (3≥B>2) | < 500 | > 1.5 |
| N#Cc1cccc(F)c1CC1c2ccccc2C(=O)N1Cc1ccc2[nH]c(=O)oc2c1 (centres unmarked) [Compound 170, 3-fluoro-2-((3-oxo-2-((2-oxo-2,3-dihydrobenzo[d]oxazol-6-yl)methyl)isoindolin-1-yl)methyl)benzonitrile] | < 500 | A (A>3) | < 500 | > 1.5 |
| N#Cc1cccc(F)c1C[C@H]1c2ccccc2C(=O)N1Cc1ccc2[nH]c(=O)oc2c1 [Compound 172, (S)-3-fluoro-2-((3-oxo-2-((2-oxo-2,3-dihydrobenzo[d]oxazol-6-yl)methyl)isoindolin-1-yl)methyl)benzonitrile] | < 500 | B (3≥B>2) | < 500 | > 1.5 |
| N#CCc1ccccc1CC1c2ccccc2C(=O)N1Cc1ccc2[nH]c(=O)oc2c1 (centres unmarked) [Compound 173, 2-(2-((3-oxo-2-((2-oxo-2,3-dihydrobenzo[d]oxazol-6-yl)methyl)isoindolin-1-yl)methyl)phenyl)acetonitrile] | 500 to 5000 | B (3≥B>2) | 500 to 5000 | > 1.5 |
| Cc1c(C#N)cccc1CC1c2ccccc2C(=O)N1Cc1ccc2[nH]c(=O)oc2c1 (centres unmarked) [Compound 174, 2-methyl-3-((3-oxo-2-((2-oxo-2,3-dihydrobenzo[d]oxazol-6-yl)methyl)isoindolin-1-yl)methyl)benzonitrile] | < 500 | B (3≥B>2) | 500 to 5000 | > 1.5 |
